# Reference: article PMC6542528, “Identification, structure-activity relationship and in silico molecular docking analyses of five novel angiotensin I-converting enzyme (ACE)-inhibitory peptides from stone fish (Actinopyga lecanora) hydrolysates” (PLoS ONE, 2019)
# No end group written: not given here.
# What was measured:
# [1] = molecular target: T1, angiotensin I-converting enzyme (from rabbit lung) (Oryctolagus cuniculus, UniProt P12822); assay: ACE-inhibitory activity assay (HHL substrate, colorimetric at 410 nm) and IC50 determination; assay type: biochemical; conditions: mean ± SD, triplicate; for inhibition at 10000 µM: synthesized peptide at 10 mM; for IC50: synthesized peptide, non-linear regression
# T1 construct: angiotensin I-converting enzyme (from rabbit lung); purchased Sigma Aldrich (St. Louis, Mo, USA); host or cells: rabbit lung (tissue-derived)
# T1 sequence (P12822 34-1310): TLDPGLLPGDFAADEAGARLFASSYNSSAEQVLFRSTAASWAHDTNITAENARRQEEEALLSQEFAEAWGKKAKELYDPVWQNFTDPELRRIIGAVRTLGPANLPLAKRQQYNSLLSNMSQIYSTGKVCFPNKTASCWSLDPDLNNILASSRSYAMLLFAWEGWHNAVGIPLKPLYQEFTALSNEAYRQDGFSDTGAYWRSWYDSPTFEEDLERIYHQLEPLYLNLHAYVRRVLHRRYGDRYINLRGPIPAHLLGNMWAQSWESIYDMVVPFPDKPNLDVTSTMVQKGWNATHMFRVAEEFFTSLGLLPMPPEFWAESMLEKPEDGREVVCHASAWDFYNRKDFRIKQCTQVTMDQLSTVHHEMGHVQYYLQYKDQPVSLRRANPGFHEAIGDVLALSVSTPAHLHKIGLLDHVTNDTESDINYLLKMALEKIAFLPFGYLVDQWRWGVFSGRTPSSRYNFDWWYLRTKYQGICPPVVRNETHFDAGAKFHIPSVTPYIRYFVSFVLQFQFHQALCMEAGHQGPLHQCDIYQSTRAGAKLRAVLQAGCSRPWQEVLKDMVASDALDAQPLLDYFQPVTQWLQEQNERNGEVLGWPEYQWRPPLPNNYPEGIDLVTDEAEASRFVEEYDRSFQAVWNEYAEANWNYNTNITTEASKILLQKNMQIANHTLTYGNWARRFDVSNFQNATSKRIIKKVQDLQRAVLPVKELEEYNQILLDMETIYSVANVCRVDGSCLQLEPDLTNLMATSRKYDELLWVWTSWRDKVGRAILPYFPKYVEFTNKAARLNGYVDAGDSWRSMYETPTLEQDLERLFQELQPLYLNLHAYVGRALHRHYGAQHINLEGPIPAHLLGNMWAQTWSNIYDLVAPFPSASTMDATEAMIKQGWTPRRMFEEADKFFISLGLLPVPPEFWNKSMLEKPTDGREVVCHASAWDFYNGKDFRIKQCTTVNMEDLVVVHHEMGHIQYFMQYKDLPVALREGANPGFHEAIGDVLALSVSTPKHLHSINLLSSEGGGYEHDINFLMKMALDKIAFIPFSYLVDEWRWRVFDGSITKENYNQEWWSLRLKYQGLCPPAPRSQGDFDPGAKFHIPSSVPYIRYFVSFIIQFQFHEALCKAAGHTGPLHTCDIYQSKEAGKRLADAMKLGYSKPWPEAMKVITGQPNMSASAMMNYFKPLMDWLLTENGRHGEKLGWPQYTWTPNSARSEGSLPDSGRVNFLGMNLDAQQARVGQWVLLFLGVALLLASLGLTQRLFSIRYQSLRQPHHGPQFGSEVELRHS
# Description: The peptides were chemically synthesized through solid phase synthesis for peptides ≥ 5 amino acids with a percentage purity of > 90% and supplied by Genscript (New Jersey, USA). The ACE-inhibitory activity was measured according to Jimsheena & Gowda with minor modifications. The Peptides stock solutions were diluted over ranges of concentration for each peptide. A 15 μL of the peptide was pre-incubated with 10 μL of ACE (100 mU/mL) at 37°C for 10 min. Then 50 μL of the 5 mM HHL substrate containing 0.30 M NaCl in 50 mM borate buffer pH 8.30 was added and the incubation was continued for the next 60 min. The reaction was stopped using 1 M HCl. Benzene sulfonyl chloride (BSC) and pyridine were then added at 75 μL and 150 μL, respectively and the amount of hippuric acid produced was quantified by the intensity of the yellow color produced in a microplate reader at 410 nm. The ACE-inhibitory activity of the peptides was then calculated from the average of three values as follows: ACE−inhibition(%)=[(AC−AS)/(AC−AB)]×100 (1)
# Where AC means absorbance of control (where ACE and substrate were present), AS means absorbance of sample (where peptide, ACE and substrate were present), while AB means the absorbance of blank (where only substrate was present).
# ACE = test system: ACE; set-up: method as in PMID 22224920; conditions: bromelain-generated peptide from Misgurnus anguillicaudatus tissue protein; cited from earlier work
Substance,inhibition at 10000 µM [1],IC50 [1],IC50 (ACE)
ALGPQFY [Ala-Leu-Gly-Pro-Gln-Phe-Tyr],94.4 ± 2.05%,12 ± 1 µM,
Ala-His-Leu-Leu (AHLL; printed: Ala-His-Leu-Leu),,,18.200 ± 0.900 µg/mL

# Further lines, with some results ahead:
inhibition at 10000 µM [1],IC50 [1],Substance,IC50 (ACE)
72.4 ± 1.99%,1310 ± 17 µM,LAPPTM [Leu-Ala-Pro-Pro-Thr-Met],
54.8 ± 2.17%,1680 ± 46 µM,EHPVL [Glu-His-Pro-Val-Leu],
62.1 ± 2.15%,1440 ± 17 µM,EVLIQ [Glu-Val-Leu-Ile-Gln],
81.4 ± 1.78%,980 ± 4 µM,KVPPKA [Lys-Val-Pro-Pro-Lys-Ala],
